Experiment [1] has as its target T1, Brd4 bromodomain 1 (BRD4(1)) (Homo sapiens, UniProt O60885).
T1 construct: Illustrative results with the first bromodomain of Brd4; made in house; host or cells: E. coli BL21 (DE3)
Nature of the experiment: Inhibition of tetra-acetylated histone H4 binding to Brd4 bromodomain 1 (TR-FRET). Set-up: key: Active: Compounds with an IC50 value less than 30 μM were deemed to be active.; Not Active: Compounds with an IC50 value less than 30 μM were deemed to be active. Particulars: tetra-acetylated histone H4 peptide, active = IC50 <30 μM. In short, it runs like this:
(§1)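 N-terminally His-tagged bromodomains (200 nM), expressed in E. coli, were incubated with biotinylated tetra-acetylated histone H4 peptide (25-50 nM), Eu-cryptate streptavidin and XL665 anti-His antibody in HEPES pH 7.4 buffer with KF, 0.2% DMSO, 2 h at room temperature. Inhibition read as decreased 665/620 nm TR-FRET; IC50 from dose-response curves.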
For orientation: Time-resolved FRET reads energy transfer from a long-lived donor to a nearby acceptor.

In experiment [2] the target is T2, second bromodomain of Brd2 (BRD2(2)) (Homo sapiens, UniProt P25440).
T2 construct: made in house; host or cells: E. coli BL21 (DE3)
T2 sequence (P25440 344-453 limits assumed): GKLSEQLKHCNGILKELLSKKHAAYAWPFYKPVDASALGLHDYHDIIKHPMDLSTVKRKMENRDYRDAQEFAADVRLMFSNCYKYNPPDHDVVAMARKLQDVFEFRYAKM
Nature of the experiment: Inhibition of tetra-acetylated histone H4 binding to Brd2 bromodomain 2 (TR-FRET). Set-up: key: Active: Compounds with an IC50 value less than 30 μM were deemed to be active.; Not Active: Compounds with an IC50 value less than 30 μM were deemed to be active. Particulars: tetra-acetylated histone H4 peptide, active = IC50 <30 μM. In short, it runs like this:
as §1

In experiment [3] the test system is hIL-6 mRNA. Nature of the experiment: Inhibition of hIL-6 mRNA transcription in U937 cells. Type of experiment: cell-based, human. Set-up: key: Active: Compounds with an IC50 value less than 30 μM were deemed to be active.; Not Active: Compounds with an IC50 value less than 30 μM were deemed to be active. The settings on record: LPS stimulation, active = IC50 <30 μM. In a few lines:
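U937 cells differentiated 3 days with 60 ng/mL PMA, pretreated 1 h with compound, then stimulated with 1 ug/mL E. coli LPS for 3 h at 37° C. hIL-6 mRNA quantified by one-step qRT-PCR, Ct normalized to internal control, expressed as fold induction relative to control.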

Experiment [4] relates to ApoA-I mRNA. Nature of the experiment: Up-regulation of hApoA-1 mRNA transcription in Huh7 cells. In kind it is cell-based, human. Particulars: 48 h treatment, ApoA-I mRNA by real-time PCR, Active = EC170 less than 30 μM. Set-up: key: Active: Compounds with an EC170 value less than 30 μM were deemed to be active. As for the experimental part: In this example, ApoA-I mRNA in tissue culture cells was quantitated to measure the transcriptional up-regulation of ApoA-I when treated with a compound of the present disclosure.
Huh7 cells (2.5×10^5 per well) were plated in a 96-well plate using 100 μL DMEM per well, (Gibco DMEM supplemented with penicillin/streptomycin and 10% FBS), 24 h before the addition of the compound of interest. After 48 h treatment, the spent media was removed from the Huh-7 cells and placed on ice (for immediate use) or at −80° C. (for future use) with the “LDH cytotoxicity assay Kit II” from Abcam. The cells remaining in the plate were rinsed with 100 μL PBS.
Then 85 μL of cell lysis solution was added to each well and incubated for 5-10 min at room temperature, to allow for complete cell lysis and detachment. mRNA was then prepared using the “mRNA Catcher PLUS plate” from Life Technologies, according to the protocol supplied. After the last wash, as much wash buffer as possible was aspirated without allowing the wells to dry. Elution Buffer (E3, 80 μL) was then added to each well. mRNA was then eluted by incubating the mRNA Catcher PLUS plate with Elution Buffer for 5 min at 68° C., and then 1 min at 4° C. Catcher plates with mRNA eluted were kept on ice for use or stored at −80° C.
The eluted mRNA isolated was then used in a one-step real-time PCR reaction, using components of the Ultra Sense Kit together with Life Technologies primer-probe mixes. Real-time PCR data was analyzed, using the Ct values, to determine the fold induction of each unknown sample, relative to the control (that is, relative to the control for each independent DMSO concentration).
Compounds with an EC170 value less than 30 μM were deemed to be active.
(Quantitative PCR measures a nucleic acid by following its amplification.)

Experiment [5] deals with c-myc. As to the kind of experiment: Inhibition of c-myc expression in MV4-11 cells (mRNA, real-time PCR). The settings on record: Human AML MV4-11 cells, 3 h incubation. In kind it is cell-based. More on the design: key: Active: Compounds with an IC50 value less than 30 μM were deemed to be active.; Not Active: Compounds with an IC50 value less than 30 μM were deemed to be active. In short, it runs like this:
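MV4-11 cells (2.5×10^4) treated with compound or 0.1% DMSO for 3 h at 37 °C. c-myc mRNA measured by RT real-time PCR duplexed with cyclophilin. IC50 from dose–response curve.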

For experiment [6], the system named is human AML MV-4-11 (CRL-9591) cells. As to the kind of experiment: Inhibition of cell proliferation in MV4-11 cells. The settings on record: human AML MV-4-11 cells, 72 h; active = IC50 <30 μM. More on the design: key: Active: Compounds with an IC50 value less than 30 μM were deemed to be active.; Not Active: Compounds with an IC50 value less than 30 μM were deemed to be active. Type of experiment: cell-based. In a few lines:
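Exponentially growing MV-4-11 cells (5×10^4/well) were treated immediately with two-fold dilutions of compound from 30 μM to 0.2 μM, in triplicate, for 72 h at 37° C, 5% CO2. Viability was measured by MTS absorbance at 490 nm after 3–4 h. Proliferation relative to DMSO after blank correction gave IC50.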

Take `Cc1noc(C)c1-c1ccc(=O)n([C@H](C)c2ccc(F)cc2)c1` (single isomer, unassigned) [Example 111]: the “FRET activity (IC50 <30 μM) BRD4(1)” value in experiment [1] was “Active”. Also, the “FRET activity (IC50 <30 μM) BRD2(2)” value in experiment [2] is on record as “Active”. In experiment [3], the “IL-6 activity (IC50 <30 μM)” value is on record as “Active”. The “ApoA-1 activity (EC170 <30 μM)” value in experiment [4] is reported as “Active”.

With `Cc1noc(C)c1-c1ccc(=O)n(C(C)c2ccccn2)c1` (centres unmarked) [Example 112, 5-(3,5-Dimethylisoxazol-4-yl)-1-(1-(pyridin-2-yl)ethyl)pyridin-2(1H)-one], in experiment [1], the “FRET activity (IC50 <30 μM) BRD4(1)” value is on record as “Active”. Further, in experiment [2], the “FRET activity (IC50 <30 μM) BRD2(2)” value was “Active”. The “IL-6 activity (IC50 <30 μM)” value in experiment [3] is “Not Active”. Besides, the “ApoA-1 activity (EC170 <30 μM)” value in experiment [4] is on record as “Active”.

`Cc1onc(N)c1-c1ccc(=O)n(Cc2ccccc2)c1` [Example 151, 5-(3-Amino-5-methylisoxazol-4-yl)-1-benzylpyridin-2(1H)-one]: in experiment [1], the “FRET activity (IC50 <30 μM) BRD4(1)” value is “Active”. Moreover, in experiment [2], the “FRET activity (IC50 <30 μM) BRD2(2)” value was “Active”. Besides, the “c-myc activity (IC50 <30 μM)” value in experiment [5] is given as “Not Active”. Also, the “Cell Proliferation activity (IC50 <30 μM)” value in experiment [6] was “Active”. Further, the “IL-6 activity (IC50 <30 μM)” value in experiment [3] is recorded as “Active”.

Take `Cc1noc(C)c1-c1ccc(=O)n(Cc2ccc(Cl)c(Cl)c2)c1` [Example 155, 1-(3,4-Dichlorobenzyl)-5-(3,5-dimethylisoxazol-4-yl)pyridin-2(1H)-one]: the “FRET activity (IC50 <30 μM) BRD4(1)” value in experiment [1] is given as “Active”. In addition, in experiment [4], the “ApoA-1 activity (EC170 <30 μM)” value is listed as “Active”.

Regarding `Cc1noc(C)c1-c1cc(Nc2cccc(F)c2)c(=O)n(Cc2ccccc2)c1` [Example 157, 1-Benzyl-5-(3,5-dimethylisoxazol-4-yl)-3-((3-fluorophenyl)amino)pyridin-2(1H)-one], in experiment [1], the “FRET activity (IC50 <30 μM) BRD4(1)” value was “Active”. Further, the “ApoA-1 activity (EC170 <30 μM)” value in experiment [4] is recorded as “Active”.

As to `Cc1onc(CO)c1-c1ccc(=O)n(Cc2ccccc2)c1` [Example 158, 1-Benzyl-5-(3-(hydroxymethyl)-5-methylisoxazol-4-yl)pyridin-2(1H)-one], in experiment [1], the “FRET activity (IC50 <30 μM) BRD4(1)” value is given as “Active”. For the same compound, the “ApoA-1 activity (EC170 <30 μM)” value in experiment [4] is recorded as “Active”.

Regarding `Cc1nscc1-c1ccc(=O)n(Cc2ccccc2)c1` [Example 160, 1-Benzyl-5-(3-methylisothiazol-4-yl)pyridin-2(1H)-one], in experiment [1], the “FRET activity (IC50 <30 μM) BRD4(1)” value was “Active”. Besides, the “ApoA-1 activity (EC170 <30 μM)” value in experiment [4] is “Active”.

Consider `COc1ccc(-c2nn(Cc3ccccc3)c(=O)c3ccccc23)c(O)c1OC` [Example 164, 2-Benzyl-4-(2-hydroxy-3,4-dimethoxyphenyl)phthalazin-1(2H)-one], for which, in experiment [1], the “FRET activity (IC50 <30 μM) BRD4(1)” value was “Active”. Besides, the “FRET activity (IC50 <30 μM) BRD2(2)” value in experiment [2] is on record as “Active”. Moreover, the “c-myc activity (IC50 <30 μM)” value in experiment [5] is listed as “Not Active”. The “Cell Proliferation activity (IC50 <30 μM)” value in experiment [6] is recorded as “Active”. The “IL-6 activity (IC50 <30 μM)” value in experiment [3] was “Not Active”.

For the compound `Cc1noc(CO)c1-c1ccc(=O)n(Cc2ccccc2)c1` [Example 214, 1-benzyl-5-(5-(hydroxymethyl)-3-methylisoxazol-4-yl)pyridin-2(1H)-one], the “FRET activity (IC50 <30 μM) BRD4(1)” value in experiment [1] is on record as “Active”. Besides, in experiment [3], the “IL-6 activity (IC50 <30 μM)” value was “Active”. For the same compound, in experiment [4], the “ApoA-1 activity (EC170 <30 μM)” value is listed as “Active”.

As to `Cc1noc(C)c1Nc1cc(-c2c(C)noc2C)cn(Cc2ccccc2)c1=O` [Example 217, 1-benzyl-5-(3,5-dimethylisoxazol-4-yl)-3-((3,5-dimethylisoxazol-4-yl)amino)pyridin-2(1H)-one], the “FRET activity (IC50 <30 μM) BRD4(1)” value in experiment [1] is listed as “Active”. The “IL-6 activity (IC50 <30 μM)” value in experiment [3] is “Not Active”. For the same compound, the “ApoA-1 activity (EC170 <30 μM)” value in experiment [4] is “Active”.

Take `C=Cc1ccc(Cn2cc(-c3c(C)noc3C)ccc2=O)cc1` [Example 218, 5-(3,5-Dimethylisoxazol-4-yl)-1-(4-vinylbenzyl)pyridin-2(1H)-one]: the “FRET activity (IC50 <30 μM) BRD4(1)” value in experiment [1] was “Active”. For the same compound, in experiment [3], the “IL-6 activity (IC50 <30 μM)” value was “Active”. Besides, the “ApoA-1 activity (EC170 <30 μM)” value in experiment [4] was “Active”.

(Values after patent US9271978B2 (Zenith Epigenetics Corp., priority 2012, dated 2016).)
